# Target: T1, ER (Homo sapiens, UniProt P03372)
# T1 construct: host or cells: T47D and MCF7 human breast cancer cells
# T1 sequence (P03372 1-595): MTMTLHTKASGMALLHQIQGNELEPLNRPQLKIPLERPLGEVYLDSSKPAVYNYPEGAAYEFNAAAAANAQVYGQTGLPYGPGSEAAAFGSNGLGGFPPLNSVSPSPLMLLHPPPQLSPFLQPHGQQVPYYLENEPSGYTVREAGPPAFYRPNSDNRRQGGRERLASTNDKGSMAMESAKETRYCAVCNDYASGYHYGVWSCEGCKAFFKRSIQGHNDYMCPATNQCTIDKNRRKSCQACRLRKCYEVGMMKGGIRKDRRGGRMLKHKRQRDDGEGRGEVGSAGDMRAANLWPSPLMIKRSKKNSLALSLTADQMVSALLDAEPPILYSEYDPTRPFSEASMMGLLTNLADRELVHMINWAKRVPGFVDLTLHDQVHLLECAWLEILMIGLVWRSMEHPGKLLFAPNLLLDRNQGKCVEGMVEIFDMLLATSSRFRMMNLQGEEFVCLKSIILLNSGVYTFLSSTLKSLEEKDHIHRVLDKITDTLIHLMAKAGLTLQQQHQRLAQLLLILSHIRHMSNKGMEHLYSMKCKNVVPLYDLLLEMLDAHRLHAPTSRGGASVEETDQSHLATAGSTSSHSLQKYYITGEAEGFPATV
# Test: ER degradation activity, in-cell western blot analysis in T47D cells
# Format: cell-based
# Conditions: 16 hours, Table A does not say which cell line (T47D or MCF7), read-out: Potency (DC50)
# How it was run: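 Human T47D cells (DMEM, 10% FBS) are dosed for 16 h with 0.5% DMSO final and probed with 680- and 800-dye secondary antibodies. Relative ER is calculated against vehicle and untreated wells.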
row,SMILES,DC50 [nM]
1,"C[C@@H]1Cc2c([nH]c3ccccc23)[C@@H](c2c(F)cc(N3CCCC4(CN(C(=O)CN5Cc6cc7c(cc6C5)C(=O)N(C5CCC(=O)NC5=O)C7=O)C4)C3)cc2F)N1CC(F)F (stereo partly drawn) [E 81, 6-(2-(6-(4-((1R,3R)-2-(2,2-difluoroethyl)-3-methyl-2,3,4,9-tetrahydro-1H-pyrido[3,4-b]indol-1-yl)-3,5-difluorophenyl)-2,6-diazaspiro[3.5]nonan-2-yl)-2-oxoethyl)-2-(2,6-dioxopiperidin-3-yl)-6,7-dihydropyrrolo[3,4-f]isoindole-1,3(2H,5H)-dione]",10 to 100
2,"C[C@@H]1Cc2c([nH]c3ccccc23)[C@@H](c2c(F)cc(N3CC4(CN(C(=O)CN5Cc6cc7c(cc6C5)C(=O)N(C5CCC(=O)NC5=O)C7=O)C4)C3)cc2F)N1CC(F)F (stereo partly drawn) [E 82, 6-(2-(6-(4-((1R,3R)-2-(2,2-difluoroethyl)-3-methyl-2,3,4,9-tetrahydro-1H-pyrido[3,4-b]indol-1-yl)-3,5-difluorophenyl)-2,6-diazaspiro[3.3]heptan-2-yl)-2-oxoethyl)-2-(2,6-dioxopiperidin-3-yl)-6,7-dihydropyrrolo[3,4-f]isoindole-1,3(2H,5H)-dione]",< 10
3,"C[C@@H]1Cc2c([nH]c3ccccc23)[C@@H](c2c(F)cc(N3CCC4(CN(C(=O)CN5Cc6cc7c(cc6C5)C(=O)N(C5CCC(=O)NC5=O)C7=O)C4)C3)cc2F)N1CC(F)F (stereo partly drawn) [E 83, 6-(2-(6-(4-((1R,3R)-2-(2,2-difluoroethyl)-3-methyl-2,3,4,9-tetrahydro-1H-pyrido[3,4-b]indol-1-yl)-3,5-difluorophenyl)-2,6-diazaspiro[3.4]octan-2-yl)-2-oxoethyl)-2-(2,6-dioxopiperidin-3-yl)-6,7-dihydropyrrolo[3,4-f]isoindole-1,3(2H,5H)-dione]",< 10
4,"C[C@@H]1Cc2c([nH]c3ccccc23)[C@@H](c2c(F)cc(N3CCC(N4CCC(CN5Cc6cc7c(cc6C5)C(=O)N(C5CCC(=O)NC5=O)C7)CC4)CC3)cc2F)N1CC(F)F (stereo partly drawn) [E 86, 3-(6-((1′-(4-((1R,3R)-2-(2,2-difluoroethyl)-3-methyl-2,3,4,9-tetrahydro-1H-pyrido[3,4-b]indol-1-yl)-3,5-difluorophenyl)-[1,4′-bipiperidin]-4-yl)methyl)-1-oxo-3,5,6,7-tetrahydropyrrolo[3,4-f]isoindol-2(1H)-yl)piperidine-2,6-dione]",10 to 100
5,"C[C@@H]1Cc2c([nH]c3ccccc23)[C@@H](c2c(F)cc(N3CCC(N4CCC(N5Cc6cc7c(cc6C5)C(=O)N(C5CCC(=O)NC5=O)C7=O)CC4)CC3)cc2F)N1CC(F)F (stereo partly drawn) [E 87, 6-(1′-(4-((1R,3R)-2-(2,2-difluoroethyl)-3-methyl-2,3,4,9-tetrahydro-1H-pyrido[3-4-b]indol-1-yl)-3,5-difluorophenyl)-[1,4′-bipiperidin]-4-yl)-2-(2,6-dioxopiperidin-3-yl)-6,7-dihydropyrrolo[3,4-f]isoindole-1,3(2H,5H)-dione]",> 100
6,"C[C@@H]1Cc2c([nH]c3ccccc23)[C@@H](c2c(F)cc(N3CCC(N4Cc5cc6c(cc5C4)C(=O)N(C4CCC(=O)NC4=O)C6=O)CC3)cc2F)N1CC(F)F (stereo partly drawn) [E 88, 6-(1-(4-((1R,3R)-2-(2,2-difluoroethyl)-3-methyl-2,3,4,9-tetrahydro-1H-pyrido[3,4-b]indol-1-yl)-3,5-difluorophenyl)piperidin-4-yl)-2-(2,6-dioxopiperidin-3-yl)-6,7-dihydropyrrolo[3,4-f]isoindole-1,3(2H,5H)-dione]",> 100
7,"C[C@@H]1Cc2c([nH]c3ccccc23)[C@@H](c2c(F)cc(N3CCC(CN4Cc5cc6c(cc5C4)C(=O)N(C4CCC(=O)NC4=O)C6=O)CC3)cc2F)N1CC(F)F (stereo partly drawn) [E 89, 6-((1-(4-((1R,3R)-2-(2,2-difluoroethyl)-3-methyl-2,3,4,9-tetrahydro-1H-pyrido[3,4-b]indol-1-yl)-3,5-difluorophenyl)piperidin-4-yl)methyl)-2-(2,6-dioxopiperidin-3-yl)-6,7-dihydropyrrolo[3,4-f]isoindole-1,3(2H,5H)-dione]",> 100
8,"C[C@@H]1Cc2c([nH]c3ccccc23)[C@@H](c2c(F)cc(N3CC[C@@H](CN4CCC(C(=O)N5Cc6cc7c(cc6C5)C(=O)N(C5CCC(=O)NC5=O)C7)CC4)C3)cc2F)N1CC(F)F (stereo partly drawn) [E 90, 3-(6-(1-(((S)-1-(4-((1R,3R)-2-(2,2-difluoroethyl)-3-methyl-2,3,4,9-tetrahydro-1H-pyrido[3,4-b]indol-1-yl)-3,5-difluorophenyl)pyrrolidin-3-yl)methyl)piperidine-4-carbonyl)-1-oxo-3,5,6,7-tetrahydropyrrolo[3,4-f]isoindol-2(1H)-yl)piperidine-2,6-dione]",< 10
9,"C[C@@H]1Cc2c([nH]c3ccccc23)[C@@H](c2c(F)cc(N3CC[C@@H](CN4CCC(C(=O)N5Cc6cc7c(cc6C5)C(=O)N(C5CCC(=O)NC5=O)C7=O)CC4)C3)cc2F)N1CC(F)F (stereo partly drawn) [E 91, 6-(1-(((S)-1-(4-((1R,3R)-2-(2,2-difluoroethyl)-3-methyl-2,3,4,9-tetrahydro-1H-pyrido[3,4-b]indol-1-yl)-3,5-difluorophenyl)pyrrolidin-3-yl)methyl)piperidine-4-carbonyl)-2-(2,6-dioxopiperidin-3-yl)-6,7-dihydropyrrolo[3,4-f]isoindole-1,3(2H,5H)-dione]",< 10
10,"C[C@@H]1Cc2c([nH]c3ccccc23)[C@@H](c2c(F)cc(N3CCCC(CN4CCC(C(=O)N5Cc6cc7c(cc6C5)C(=O)N(C5CCC(=O)NC5=O)C7)CC4)C3)cc2F)N1CC(F)F (stereo partly drawn) [E 92, 3-(6-(1-((1-(4-((1R,3R)-2-(2,2-difluoroethyl)-3-methyl-2,3,4,9-tetrahydro-1H-pyrido[3,4-b]indol-1-yl)-3,5-difluorophenyl)piperidin-3-yl)methyl)piperidine-4-carbonyl)-1-oxo-3,5,6,7-tetrahydropyrrolo[3,4-f]isoindol-2(1H)-yl)piperidine-2,6-dione]",< 10
11,"C[C@@H]1Cc2c([nH]c3ccccc23)[C@@H](c2c(F)cc(N3CCC(N4CCC(CC(=O)N5Cc6cc7c(cc6C5)C(=O)N(C5CCC(=O)NC5=O)C7=O)CC4)CC3)cc2F)N1CC(F)F (stereo partly drawn) [E 93, 6-(2-(1′-(4-((1R,3R)-2-(2,2-difluoroethyl)-3-methyl-2,3,4,9-tetrahydro-1H-pyrido[3,4-b]indol-1-yl)-3,5-difluorophenyl)-[1,4′-bipiperidin]-4-yl)acetyl)-2-(2,6-dioxopiperidin-3-yl)-6,7-dihydropyrrolo[3,4-f]isoindole-1,3(2H,5H)-dione]",< 10
12,"C[C@@H]1Cc2c([nH]c3ccccc23)[C@@H](c2c(F)cc(N3CCC(N4CCC(CC(=O)N5Cc6cc7c(cc6C5)C(=O)N(C5CCC(=O)NC5=O)C7)CC4)CC3)cc2F)N1CC(F)F (stereo partly drawn) [E 94, 3-(6-(2-(1′-(4-((1R,3R)-2-(2,2-difluoroethyl)-3-methyl-2,3,4,9-tetrahydro-1H-pyrido[3,4-b]indol-1-yl)-3,5-difluorophenyl)-[1,4′-bipiperidin]-4-yl)acetyl)-1-oxo-3,5,6,7-tetrahydropyrrolo[3,4-f]isoindol-2(1H)-yl)piperidine-2,6-dione]",< 10
13,"C[C@@H]1Cc2c([nH]c3ccccc23)[C@@H](c2c(F)cc(N3CCC(N4CCN(CC(=O)N5Cc6cc7c(cc6C5)C(=O)N(C5CCC(=O)NC5=O)C7=O)CC4)CC3)cc2F)N1CC(F)F (stereo partly drawn) [E 95, 6-(2-(4-(1-(4-((1R,3R)-2-(2,2-difluoroethyl)-3-methyl-2,3,4,9-tetrahydro-1H-pyrido[3,4-b]indol-1-yl)-3,5-difluorophenyl)piperidin-4-yl)piperazin-1-yl)acetyl)-2-(2,6-dioxopiperidin-3-yl)-6,7-dihydropyrrolo[3,4-f]isoindole-1,3(2H,5H)-dione]",< 10
14,"C[C@@H]1Cc2c([nH]c3ccccc23)[C@@H](c2c(F)cc(N3CCC(N4CCN(CC(=O)N5Cc6cc7c(cc6C5)C(=O)N(C5CCC(=O)NC5=O)C7)CC4)CC3)cc2F)N1CC(F)F (stereo partly drawn) [E 96, 3-(6-(2-(4-(1-(4-((1R,3R)-2-(2,2-difluoroethyl)-3-methyl-2,3,4,9-tetrahydro-1H-pyrido[3,4-b]indol-1-yl)-3,5-difluorophenyl)piperidin-4-yl)piperazin-1-yl)acetyl)-1-oxo-3,5,6,7-tetrahydropyrrolo[3,4-f]isoindol-2(1H)-yl)piperidine-2,6-dione]",< 10
15,"C[C@@H]1Cc2c([nH]c3ccccc23)[C@@H](c2c(F)cc(N3CC4(CCN(CC(=O)N5Cc6cc7c(cc6C5)C(=O)N(C5CCC(=O)NC5=O)C7=O)CC4)C3)cc2F)N1CC(F)F (stereo partly drawn) [E 97, 6-(2-(2-(4-((1R,3R)-2-(2,2-difluoroethyl)-3-methyl-2,3,4,9-tetrahydro-1H-pyrido[3,4-b]indol-1-yl)-3,5-difluorophenyl)-2,7-diazaspiro[3.5]nonan-7-yl)acetyl)-2-(2,6-dioxopiperidin-3-yl)-6,7-dihydropyrrolo[3,4-f]isoindole-1,3(2H,5H)-dione]",10 to 100
